Experimental data published in patent US10323041B2, “Bicyclic derivatives, a process for their preparation and pharmaceutical compositions containing them” (LES LABORATOIRES SERVIER, priority 2015, dated 2019).
Where two headings read alike, the source gives them in different places.

Legend:
Mcl-1 protein = Mcl-1 protein (Homo sapiens, UniProt Q07820); test: Inhibition of Mcl-1 by the fluorescence polarisation technique; format: binding; conditions: Method 1 (not underlined) or Method 2 (underlined); underlining not visible; first value where cell prints two; read-out: IC50 (M) Mcl-1 FP
Sequence of Mcl-1 protein (Q07820 whole entry): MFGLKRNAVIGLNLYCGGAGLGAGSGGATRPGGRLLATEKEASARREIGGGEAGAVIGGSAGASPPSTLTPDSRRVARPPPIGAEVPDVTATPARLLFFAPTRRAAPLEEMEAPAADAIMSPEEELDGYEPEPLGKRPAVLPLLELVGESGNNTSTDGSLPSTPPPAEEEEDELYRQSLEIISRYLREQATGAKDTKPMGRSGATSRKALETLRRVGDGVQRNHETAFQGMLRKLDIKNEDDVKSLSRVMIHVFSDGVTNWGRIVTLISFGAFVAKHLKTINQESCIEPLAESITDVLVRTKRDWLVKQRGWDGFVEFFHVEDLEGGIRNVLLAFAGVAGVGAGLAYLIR
Summary of the method: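 Competitive FP with fluorescein-labelled peptide ligand, 5% DMSO, ~2 h at room temperature, 11-point curves, 4-parameter IC50. Method 1: 1 nM ligand, 5 nM Mcl-1 in HEPES pH 7.4 buffer; Method 2: 10 nM ligand, 10 nM Mcl-1 in phosphate pH 7.4 buffer, 50 μM unlabelled ligand as full-inhibition control.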

[1] = system: H929 multiple myeloma tumour line; test: In vitro cytotoxicity, Microculture Tetrazolium Assay on H929 cells; format: cell-based; conditions: cell viability, read-out: IC50 (M) MTT H929
Experimental: The cytotoxicity studies were carried out on the H929 multiple myeloma tumour line.
The cells are distributed onto microplates and exposed to the test compounds for 48 hours. The cell viability is then quantified by a colorimetric assay, the Microculture Tetrazolium Assay (Cancer Res., 1987, 47, 939-942).

cleaved form of PARP = test: Quantification of the cleaved form of PARP in vivo; parameters: species or system mice (SCID strain); conditions: AMO-1 xenograft in SCID mice; cleaved PARP in tumour lysates, treated / control; intraveinous or oral routes
Experimental: The ability of the compounds of the invention to induce apoptosis, by measuring cleaved PARP levels, is evaluated in a xenograft model of AMO-1 multiple myeloma cells.
1.10^7 AMO-1 cells are grafted sub-cutaneously into immunosuppressed mice (SCID strain). 12 to 14 days after the graft, the animals are treated by intraveinous or oral routes with the various compounds. After treatment, the tumour masses are recovered and lysed, and the cleaved form of PARP is quantified in the tumour lysates.
The quantification is carried out using the “Meso Scale Discovery (MSD) ELISA platform” test, which specifically assays the cleaved form of PARP. It is expressed in the form of an activation factor corresponding to the ratio between the quantity of cleaved PARP in the treated mice divided by the quantity of cleaved PARP in the control mice.

[2] = Homo sapiens, NCI-H929, exposed for 48 hours

SMILES	IC50 (Mcl-1 protein) [M]	IC50 [1, 2] [M]	PARP fold (cleaved form of PARP) [fold]	IC50 ([1]; exposed for 48 hours) [M]
COc1ccccc1-c1nccc(COc2ccccc2CC(Oc2cc(F)cc3oc(-c4ccc(F)cc4)c(-c4ccc(OCCN5CCN(C)CC5)c(Cl)c4C)c23)C(=O)O)n1 [Example 67, (2R)-2-{[(3Sa)-3-{3-chloro-2-methyl-4-[2-(4-methylpiperazin-1-yl)ethoxy]phenyl}-6-fluoro-2-(4-fluorophenyl)-1-benzofuran-4-yl]oxy}-3-(2-{[2-(2-methoxyphenyl)pyrimidin-4-yl]methoxy}phenyl)propanoic acid]	1.4e-08	8.36e-08	29.3	–
CCc1c(-c2c(-c3ccc(F)cc3)oc3ncnc(O[C@H](Cc4ccccc4OCc4ccnc(-c5ccccc5OC)n4)C(=O)O)c23)ccc(OCCN2CCN(C)CC2)c1Cl [Example 2, (2R)-2-{[5-{3-chloro-2-ethyl-4-[2-(4-methylpiperazin-1-yl)ethoxy]phenyl}-6-(4-fluorophenyl)furo[2,3-d]pyrimidin-4-yl]oxy}-3-(2-{[2-(2-methoxyphenyl)pyrimidin-4-yl]methoxy}phenyl)propanoic acid]	6e-09	1.45e-08	216.3	–
COc1ccccc1-c1nccc(COc2ccccc2CC(Oc2cccc3sc(-c4ccc(F)cc4)c(-c4ccc(OCCN5CCN(C)CC5)c(Cl)c4C)c23)C(=O)O)n1 (single isomer, unassigned) [Example 53]	2.2e-08	2.53e-08	40.2	–
COc1ccccc1-c1nccc(COc2ccccc2C[C@@H](Oc2ncnc3oc(-c4ccc(F)cc4)c(-c4ccc(OCCN5CCN(C)CC5)c(Cl)c4C)c23)C(=O)O)n1 [Example 1, (2R)-2-{[5-{3-chloro-2-methyl-4-[2-(4-methylpiperazin-1-yl)ethoxy]phenyl}-6-(4-fluorophenyl)furo[2,3-d]pyrimidin-4-yl]oxy}-3-(2-{[2-(2-methoxyphenyl)pyrimidin-4-yl]methoxy}phenyl)propanoic acid]	3.8e-09	2.41e-08	157.5	–
COc1ccccc1-c1nccc(COc2ccccc2C[C@@H](Oc2ncnc3c2c(-c2ccc(OCCN4CCN(C)CC4)c(Cl)c2C)c(-c2ccc(F)cc2)n3C)C(=O)O)n1 [Example 72, (2R)-2-[5-[3-chloro-2-methyl-4-[2-(4-methylpiperazin-1-yl)ethoxy]phenyl]-6-(4-fluorophenyl)-7-methyl-pyrrolo[2,3-d]pyrimidin-4-yl]oxy-3-[2-[[2-(2-methoxyphenyl)pyrimidin-4-yl]methoxy]phenyl]propanoic acid]	1.55e-08	3.2e-08	15.7	–
COc1ccccc1-c1nccc(COc2ccccc2CC(Nc2ncnc3oc(-c4ccc(F)cc4)c(-c4ccc(OCCN5CCN(C)CC5)c(Cl)c4C)c23)C(=O)O)n1 [Example 8, N-[(5Sa)-5-{3-chloro-2-methyl-4-[2-(4-methylpiperazin-1-yl)ethoxy]phenyl}-6-(4-fluorophenyl)furo[2,3-d]pyrimidin-4-yl]-2-{[2-(2-methoxyphenyl)pyrimidin-4-yl]methoxy}-D-phenylalanine]	6.6e-09	1.78e-08	55.4	–
COc1ccccc1-c1nccc(COc2ccccc2C[C@@H](Nc2ccnc3sc(-c4ccc(F)cc4)c(-c4ccc(OCCN5CCN(C)CC5)c(Cl)c4C)c23)C(=O)O)n1 [Example 84, N-[3-{3-chloro-2-methyl-4-[2-(4-methylpiperazin-1-yl)ethoxy]phenyl}-2-(4-fluorophenyl)thieno[2,3-b]pyridin-4-yl]-2-{[2-(2-methoxyphenyl)pyrimidin-4-yl]methoxy}-D-phenylalanine]	5.45e-09	1.09e-08	–	–
COc1ccccc1CC(Nc1ncnc2oc(-c3ccc(F)cc3)c(-c3ccc(OCCN4CCN(C)CC4)c(Cl)c3C)c12)C(=O)O [Example 7, N-[(5Sa)-5-{3-chloro-2-methyl-4-[2-(4-methylpiperazin-1-yl)ethoxy]phenyl}-6-(4-fluorophenyl)furo[2,3-d]pyrimidin-4-yl]-2-methoxy-D-phenylalanine]	1.1e-07	7.57e-07	–	–
COc1ccccc1-c1nccc(COc2ccccc2C[C@@H](Nc2ncnc3oc(-c4ccc(F)cc4)c(-c4ccc(OCCN5CCN(C)CC5)c(Cl)c4C)c23)C(=O)O)n1 [Example 9, N-[(5Ra)-5-{3-chloro-2-methyl-4-[2-(4-methylpiperazin-1-yl)ethoxy]phenyl}-6-(4-fluorophenyl)furo[2,3-d]pyrimidin-4-yl]-2-{[2-(2-methoxyphenyl)pyrimidin-4-yl]methoxy}-D-phenylalanine]	8.6e-08	–	–	6.89e-08
Cc1c(-c2c(-c3ccc(F)cc3)oc3ncnc(O[C@H](Cc4ccccc4OCc4cnccn4)C(=O)O)c23)ccc(OCCN2CCN(C)CC2)c1Cl [Example 4, (2R)-2-{[5-{3-chloro-2-methyl-4-[2-(4-methylpiperazin-1-yl)ethoxy]phenyl}-6-(4-fluorophenyl)furo[2,3-d]pyrimidin-4-yl]oxy}-3-[2-(pyrazin-2-ylmethoxy)phenyl]propanoic acid]	2.9e-08	3.29e-07	–	–
